Test systems include IGROV1 ovarian; SNB-78 CNS; SF-539 CNS; SK-MEL-2 melanoma; SK-MEL-5 melanoma; MALME-3M melanoma; K-562 leukemia; DLD-1 colon; HL-60(TB) leukemia; MDA-MB-435.
Assay in all cases: NCI tumour cell line growth inhibition, 48 h

Several values for one entry are separate records, joined by “and”; a condition that tells them apart may be missing. Equal entries are not always repeated.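 In this assay, cells in 96-well plates receive the compound at five concentrations for 48 hours. Endpoints are linearly interpolated between the surrounding concentrations. GI50 is the concentration that inhibits growth by half. At the TGI there is no net growth.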

As for `CC[C@@]1(OP(=O)(O)O)C(=O)OCc2c1cc1n(c2=O)Cc2cc3ccccc3nc2-1`, the GI50 with IGROV1 ovarian was 0.377 µM; with SNB-78 CNS, 3.81 µM; with SF-539 CNS, 0.0472 µM; in the test with SK-MEL-2 melanoma, 1.85 µM; in the test on SK-MEL-5 melanoma, 0.126 µM; with MALME-3M melanoma it was 1.09 µM. The values for the GI50 in the test with K-562 leukemia and with DLD-1 colon were 0.572 µM and 2.56 µM, respectively. The TGI is 4.51 µM and 5.58 µM in the test on IGROV1 ovarian; more than 100 µM with SNB-78 CNS; 0.537 µM and 0.373 µM with SF-539 CNS; 7.36 µM and 5.05 µM in the test with SK-MEL-2 melanoma; 0.458 µM and 0.46 µM with SK-MEL-5 melanoma; 9.87 µM and 14 µM in the test on MALME-3M melanoma. The TGI in the test with K-562 leukemia was more than 100 µM; in the test with HL-60(TB) leukemia, 0.188 µM; in the test with MDA-MB-435 it was 2.11 µM.

Take `CS(=O)(=O)OCCN(CCOS(C)(=O)=O)c1ccc(C=Nc2ccc(-c3csc(COc4ccccc4)n3)cc2)cc1`: the TGI is 32.8 µM in the test on IGROV1 ovarian; 66.4 µM in the test with SNB-78 CNS; 14.7 µM in the test with SF-539 CNS; 37.3 µM in the test with SK-MEL-2 melanoma; 23.9 µM in the test on SK-MEL-5 melanoma; 28.8 µM in the test with MALME-3M melanoma. The TGI is more than 76 µM in the test on K-562 leukemia, 29.3 µM in the test with DLD-1 colon, 16.2 µM in the test with HL-60(TB) leukemia and 31.6 µM with MDA-MB-435.

As to `O=P1(NCCCl)OCCCN1CCCl` (stereo unspecified), the TGI in the test with IGROV1 ovarian came out at 457 µM; in the test with SNB-78 CNS it was 451 µM; with SF-539 CNS it was 413 µM; with SK-MEL-2 melanoma, 419 µM; in the test with SK-MEL-5 melanoma, 429 µM; with MALME-3M melanoma, 399 µM. The TGI is 466 µM in the test with K-562 leukemia, 431 µM in the test with DLD-1 colon, 381 µM in the test on HL-60(TB) leukemia and more than 500 µM with MDA-MB-435.

Turning to `COc1ccc2c(c1)[C@@H](NC(C)=O)CCc1cc(OC)c(OC)c(OC)c1-2`, the TGI is more than 100 µM in the test on IGROV1 ovarian; more than 100 µM with SNB-78 CNS; less than 0.0154 µM with SF-539 CNS; more than 21.5 µM with SK-MEL-2 melanoma; 0.0298 µM in the test with SK-MEL-5 melanoma; more than 100 µM in the test with MALME-3M melanoma. In addition, the TGI in the test on K-562 leukemia is more than 100 µM; with DLD-1 colon, more than 100 µM; with HL-60(TB) leukemia it was less than 0.0142 µM; in the test with MDA-MB-435, 0.0244 µM.

Regarding `O=C(CCc1nnc2s/c(=C\c3ccc([N+](=O)[O-])cc3)c(=O)n12)Nc1ccc(Cl)c(Cl)c1`, the TGI in the test with IGROV1 ovarian is 50 µM; in the test with SNB-78 CNS it was 52.8 µM; with SF-539 CNS it was 32.2 µM; in the test with SK-MEL-2 melanoma, 73.9 µM; with SK-MEL-5 melanoma, more than 100 µM; with MALME-3M melanoma, 98 µM. Besides, the results for the TGI in the test on K-562 leukemia, in the test with DLD-1 colon and with HL-60(TB) leukemia were 63.9 µM, 46.5 µM and 44.3 µM, respectively.

Values taken from PubChem BioAssay (NCI).
